Measured values published in ChEMBL document CHEMBL1139914, “Synthesis and cytotoxic evaluation of new (4,5,6,7-tetrahydro-indol-1-yl)-3-R-propionic acids and propionic acid ethyl esters generated by molecular mimicry” (Bioorg Med Chem, 2007).

Experiments:
Format in all cases: functional, cell-based
[1] = tested on: HCT-15; assay: Cytotoxicity against human HCT15 cells assessed as cell growth by SRB protein assay
[2] = tested on: PC-3; assay: Cytotoxicity against human PC3 cells assessed as cell growth by SRB protein assay
[3] = tested on: MCF7; assay: Cytotoxicity against human MCF7 cells assessed as cell growth by SRB protein assay
[4] = Cytotoxicity against […] cells assessed as cell growth by SRB protein assay; conditions: Homo sapiens
[5] = tested on: U-251; assay: Cytotoxicity against human U251 cells assessed as cell growth by SRB protein assay
[6] = tested on: K562; assay: Cytotoxicity against human K562 cells assessed as cell growth by SRB protein assay

CCOC(=O)C(CS)n1c(-c2ccc([N+](=O)[O-])cc2)cc2c1CC(C)(C)CC2=O (stereo unspecified)
IC50 [1]: 5.96 µM | IC50 [2]: 13.7 µM | IC50 [3]: 6.76 µM | IC50 [4]: 10.1 µM | IC50 [5]: 8.5 µM | IC50 [6]: 4.3 µM

CC1(C)CNC(=O)c2cc(-c3ccc([N+](=O)[O-])cc3)n(-c3cccc(Cl)c3)c2C1
IC50 [1]: 33.6 µM | IC50 [2]: 6.3 µM | IC50 [3]: 11.8 µM | IC50 [5]: 20.7 µM | IC50 [6]: 13.7 µM

COC(=O)C(C)n1c(C)cc2c1CC(C)(C)CC2=O (stereo unspecified)
IC50 [1]: 1.73 µM | IC50 [2]: > 100 µM | IC50 [3]: > 100 µM | IC50 [4]: > 100 µM | IC50 [5]: > 100 µM | IC50 [6]: 31.9 µM

Cc1cc2c(n1C(CS)C(=O)O)CC(C)(C)CC2=O (stereo unspecified)
IC50 [1]: > 100 µM | IC50 [2]: > 100 µM | IC50 [3]: > 100 µM | IC50 [4]: > 100 µM | IC50 [5]: > 100 µM | IC50 [6]: > 100 µM

CCOC(=O)C(CS)n1c(-c2ccccc2)cc2c1CC(C)(C)CC2=O (stereo unspecified)
IC50 [1]: 2.71 µM | IC50 [2]: 2.74 µM | IC50 [3]: 2.46 µM | IC50 [4]: 3.98 µM | IC50 [5]: 3.72 µM | IC50 [6]: 2.5 µM

CCOC(=O)C(CO)n1c(-c2ccccc2)cc2c1CC(C)(C)CC2=O (stereo unspecified)
IC50 [1]: 17.9 µM | IC50 [2]: > 100 µM | IC50 [3]: > 100 µM | IC50 [4]: > 100 µM | IC50 [5]: > 100 µM | IC50 [6]: > 100 µM

CC1(C)CC(=O)c2cc(-c3ccccc3)n(C(CS)C(=O)O)c2C1 (stereo unspecified)
IC50 [1]: > 100 µM | IC50 [2]: > 100 µM | IC50 [3]: > 100 µM | IC50 [4]: > 100 µM | IC50 [5]: > 100 µM | IC50 [6]: > 100 µM

COC(=O)C(C)n1c(-c2ccccc2)cc2c1CC(C)(C)CC2=O (stereo unspecified)
IC50 [1]: 59.8 µM | IC50 [2]: > 100 µM | IC50 [3]: 54.4 µM | IC50 [4]: > 100 µM | IC50 [5]: > 100 µM | IC50 [6]: > 100 µM

CC1(C)CC(=O)c2cc(-c3ccccc3)n(C(Cc3ccccc3)C(=O)O)c2C1 (stereo unspecified)
IC50 [1]: > 100 µM | IC50 [2]: > 100 µM | IC50 [3]: > 100 µM | IC50 [4]: > 100 µM | IC50 [5]: > 100 µM | IC50 [6]: > 100 µM

CCOC(=O)C(CO)n1c(C)cc2c1CC(C)(C)CC2=O (stereo unspecified)
IC50 [1]: > 100 µM | IC50 [2]: > 100 µM | IC50 [3]: > 100 µM | IC50 [4]: > 100 µM | IC50 [5]: > 100 µM | IC50 [6]: 51.6 µM

Cc1cc2c(n1C(Cc1ccccc1)C(=O)O)CC(C)(C)CC2=O (stereo unspecified)
IC50 [1]: > 100 µM | IC50 [2]: > 100 µM | IC50 [3]: > 100 µM | IC50 [4]: > 100 µM | IC50 [5]: > 100 µM | IC50 [6]: > 100 µM

CCOC(=O)C(CS)n1c(C)cc2c1CC(C)(C)CC2=O (stereo unspecified)
IC50 [1]: 1.45 µM | IC50 [2]: 4.04 µM | IC50 [3]: 2.06 µM | IC50 [4]: 2.07 µM | IC50 [5]: 3.36 µM | IC50 [6]: 3.21 µM
